Assay results taken from PubChem BioAssay (NCI).
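Method: 48-hour compound exposure of cells in 96-well plates, five concentrations, linear interpolation of endpoints. Here, GI50 denotes the concentration required for 50% inhibition of growth. TGI: total growth inhibition.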

Key:
Experiment in all cases: growth of human tumour cells (NCI), 48 h; in the data active means GI50 below about 0.43 µM; inactive means the rest
DU-145 prostate = system: DU-145 prostate
OVCAR-4 ovarian = system: OVCAR-4 ovarian
OVCAR-8 ovarian = system: OVCAR-8 ovarian
MDA-MB-435 = system: MDA-MB-435
OVCAR-5 ovarian = system: OVCAR-5 ovarian
U251 CNS = system: U251 CNS
SNB-75 CNS = system: SNB-75 CNS
SF-539 CNS = system: SF-539 CNS
IGROV1 ovarian = system: IGROV1 ovarian
A549 NSCLC = system: A549 NSCLC
MOLT-4 leukemia = system: MOLT-4 leukemia
SK-MEL-28 melanoma = system: SK-MEL-28 melanoma
HL-60(TB) leukemia = system: HL-60(TB) leukemia
HCT-15 colon = system: HCT-15 colon
UO-31 renal = system: UO-31 renal
SN12C renal = system: SN12C renal
SNB-19 CNS = system: SNB-19 CNS
SK-MEL-5 melanoma = system: SK-MEL-5 melanoma
UACC-62 melanoma = system: UACC-62 melanoma
T-47D breast = system: T-47D breast
UACC-257 melanoma = system: UACC-257 melanoma
MDA-MB-231 breast = system: MDA-MB-231 breast
NCI-H23 lung = system: NCI-H23 lung
NCI-H460 lung = system: NCI-H460 lung
SF-268 CNS = system: SF-268 CNS
EKVX NSCLC = system: EKVX NSCLC
NCI-H226 lung = system: NCI-H226 lung
TK-10 renal = system: TK-10 renal
SW-620 colon = system: SW-620 colon
K-562 leukemia = system: K-562 leukemia
NCI/ADR-RES ovarian = system: NCI/ADR-RES ovarian
HS 578T breast = system: HS 578T breast
SK-OV-3 ovarian = system: SK-OV-3 ovarian
KM12 colon = system: KM12 colon
ACHN renal = system: ACHN renal
HCC-2998 colon = system: HCC-2998 colon
COLO 205 colon = system: COLO 205 colon
SR leukemia = system: SR leukemia
HOP-62 NSCLC = system: HOP-62 NSCLC
CCRF-CEM leukemia = system: CCRF-CEM leukemia
A498 renal = system: A498 renal
MCF7 breast = system: MCF7 breast
SF-295 CNS = system: SF-295 CNS
RXF 393 renal = system: RXF 393 renal
MALME-3M melanoma = system: MALME-3M melanoma
HOP-92 NSCLC = system: HOP-92 NSCLC
M14 melanoma = system: M14 melanoma
RPMI-8226 leukemia = system: RPMI-8226 leukemia
HCT-116 colon = system: HCT-116 colon
HT29 colon = system: HT29 colon
786-0 renal = system: 786-0 renal
SK-MEL-2 melanoma = system: SK-MEL-2 melanoma
OVCAR-3 ovarian = system: OVCAR-3 ovarian
LOX IMVI melanoma = system: LOX IMVI melanoma
CAKI-1 renal = system: CAKI-1 renal

N=C(N)N1CCC(N2CCOCC2)CC1
> 100 µM: TGI (DU-145 prostate) | TGI (OVCAR-4 ovarian) | TGI (OVCAR-8 ovarian) | TGI (MDA-MB-435) | TGI (OVCAR-5 ovarian) | TGI (U251 CNS) | TGI (SNB-75 CNS) | TGI (SF-539 CNS) | TGI (IGROV1 ovarian) | TGI (A549 NSCLC) | TGI (MOLT-4 leukemia) | TGI (SK-MEL-28 melanoma) | TGI (HL-60(TB) leukemia) | TGI (HCT-15 colon) | TGI (UO-31 renal) | TGI (SN12C renal) | TGI (SNB-19 CNS) | TGI (SK-MEL-5 melanoma) | TGI (UACC-62 melanoma) | TGI (T-47D breast) | TGI (UACC-257 melanoma) | TGI (MDA-MB-231 breast) | TGI (NCI-H23 lung) | TGI (NCI-H460 lung) | TGI (SF-268 CNS) | TGI (EKVX NSCLC) | TGI (NCI-H226 lung) | TGI (TK-10 renal) | TGI (SW-620 colon) | TGI (K-562 leukemia) | TGI (NCI/ADR-RES ovarian) | TGI (HS 578T breast) | TGI (SK-OV-3 ovarian) | TGI (KM12 colon) | TGI (ACHN renal) | TGI (HCC-2998 colon) | TGI (COLO 205 colon) | TGI (SR leukemia) | TGI (HOP-62 NSCLC) | TGI (CCRF-CEM leukemia) | TGI (A498 renal) | TGI (MCF7 breast) | TGI (SF-295 CNS) | TGI (RXF 393 renal) | TGI (MALME-3M melanoma) | TGI (HOP-92 NSCLC) | TGI (M14 melanoma) | TGI (RPMI-8226 leukemia) | TGI (HCT-116 colon) | TGI (HT29 colon) | TGI (786-0 renal)

CCc1c(C#N)c(S[C@@H](C(N)=O)c2ccccc2)nc(N(C)C)c1C#N
42.1 µM: TGI (U251 CNS)
7.18 µM: TGI (SNB-75 CNS)
51.9 µM: TGI (RXF 393 renal)
9.47 µM: TGI (A498 renal)
80.4 µM: TGI (TK-10 renal)
21.5 µM: TGI (SNB-19 CNS)
17.7 µM: TGI (HOP-62 NSCLC)
inactive: GI50 (DU-145 prostate) > 100 µM | GI50 (OVCAR-8 ovarian) 3.96 µM | GI50 (MDA-MB-435) > 100 µM | GI50 (OVCAR-5 ovarian) > 100 µM | GI50 (U251 CNS) 11 µM | GI50 (SNB-75 CNS) 2.11 µM | GI50 (SF-539 CNS) 4.65 µM | GI50 (IGROV1 ovarian) 7.14 µM | GI50 (HCT-15 colon) > 100 µM | GI50 (UO-31 renal) 2.95 µM | GI50 (SN12C renal) 6.81 µM | GI50 (SNB-19 CNS) 3.46 µM | GI50 (SK-MEL-2 melanoma) > 100 µM | GI50 (T-47D breast) > 100 µM | GI50 (MDA-MB-231 breast) 10.8 µM | GI50 (NCI-H23 lung) 21.1 µM | GI50 (NCI-H460 lung) > 100 µM | GI50 (SF-268 CNS) 5.07 µM | GI50 (OVCAR-3 ovarian) > 100 µM | GI50 (EKVX NSCLC) 7.93 µM | GI50 (NCI-H226 lung) 4.76 µM | GI50 (TK-10 renal) 21.9 µM | GI50 (SW-620 colon) > 100 µM | GI50 (SK-OV-3 ovarian) 6.65 µM | GI50 (KM12 colon) > 100 µM | GI50 (LOX IMVI melanoma) > 100 µM | GI50 (ACHN renal) 3.9 µM | GI50 (HCC-2998 colon) > 100 µM | GI50 (COLO 205 colon) > 100 µM | GI50 (HOP-62 NSCLC) 3.63 µM | GI50 (CCRF-CEM leukemia) > 100 µM | GI50 (A498 renal) 1.3 µM | GI50 (SF-295 CNS) 3.81 µM | GI50 (RXF 393 renal) 4.51 µM | GI50 (M14 melanoma) > 100 µM | GI50 (RPMI-8226 leukemia) > 100 µM | GI50 (HCT-116 colon) > 100 µM | GI50 (HT29 colon) > 100 µM | GI50 (CAKI-1 renal) 12.9 µM | GI50 (786-0 renal) 21.1 µM
55.3 µM: TGI (SF-295 CNS)
> 100 µM: TGI (DU-145 prostate) | TGI (OVCAR-8 ovarian) | TGI (MDA-MB-435) | TGI (OVCAR-5 ovarian) | TGI (SF-539 CNS) | TGI (IGROV1 ovarian) | TGI (HCT-15 colon) | TGI (UO-31 renal) | TGI (SN12C renal) | TGI (SK-MEL-2 melanoma) | TGI (T-47D breast) | TGI (MDA-MB-231 breast) | TGI (NCI-H23 lung) | TGI (NCI-H460 lung) | TGI (SF-268 CNS) | TGI (OVCAR-3 ovarian) | TGI (EKVX NSCLC) | TGI (NCI-H226 lung) | TGI (SW-620 colon) | TGI (SK-OV-3 ovarian) | TGI (KM12 colon) | TGI (LOX IMVI melanoma) | TGI (ACHN renal) | TGI (HCC-2998 colon) | TGI (COLO 205 colon) | TGI (CCRF-CEM leukemia) | TGI (M14 melanoma) | TGI (RPMI-8226 leukemia) | TGI (HCT-116 colon) | TGI (HT29 colon) | TGI (CAKI-1 renal) | TGI (786-0 renal)
